Results from paper PMC7377239, “Cardiovascular Effects of Polychlorinated Biphenyls and Their Major Metabolites” (Environmental Health Perspectives, 2020).
Read-outs that look alike come from different tables or passages of the source.

Columns and labels:
[1] = system: iCell cardiomyocytes (human iPSC-derived cardiomyocytes); assay: High-content imaging of cytotoxicity and mitochondrial integrity in iPSC-CMs; format: cell-based; settings: Homo sapiens; for viability at 0.01 µM / activity at 0.01 µM / viability at 0.1 µM / activity at 0.1 µM / viability at 1 µM / activity at 1 µM / viability at 10 µM / activity at 10 µM / viability at 100 µM / activity at 100 µM: Cardiomyocyte, 0.00 µM = 100.00; for viability at 0.1 µM / activity at 0.1 µM: 0.10 µM; for minimal effective concentration: iPSC-CM
Procedure, shortened: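 Human iPSC-derived cardiomyocytes were seeded on gelatin-coated 384-well plates at 5,000 cells per well and maintained for 12 d. Test chemicals were added as 10μL of 5× solutions to final concentrations of 0.01 to 100μM. Cells were stained with Hoechst 33342 and MitoTracker™ Orange, fixed in formaldehyde, and imaged by confocal high-content microscopy at 10× magnification.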

[2] = system: HUVECs; assay: High-content imaging cytotoxicity in HUVECs, 24 h; format: cell-based, human; settings: Homo sapiens, HUVEC, 24 h, HUVECs; for viability at 0.01 µM / activity at 0.01 µM / viability at 0.1 µM / activity at 0.1 µM / viability at 1 µM / activity at 1 µM / viability at 10 µM / activity at 10 µM / viability at 100 µM / activity at 100 µM: 0.00 µM = 100.00; for viability at 0.1 µM / activity at 0.1 µM: 0.10 µM; for minimal effective concentration: top concentration 100.00 µM
Procedure, shortened: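 HUVECs (passages 1–5) grown to monolayer over 3–5 d, then exposed 24 h at 37°C, 5% CO2; stained with Hoechst 33342, MitoTracker Orange and calcein AM and imaged at 10×. Readouts normalized to 0.5% DMSO vehicle, four-parameter logistic fit; POD at one-SD cutoff, 100μM assigned when no response.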

[3] = 24 hr, read-out: huvec.cyto.24hr
[4] = 24 hr, read-out: huvec.mito.24hr
[5] = 24 hr, read-out: huvec.mitoint.24hr
[6] = 24 hr, read-out: huvec.nma.24hr
[7] = 24 hrs, read-out: huvec.tc.24hrs

Structure (SMILES): COc1ccc(-c2ccc(Cl)cc2)cc1 [4'-OMe PCB3]
- viability at 0.01 µM ([1]; 1.5 h, read-out: cm.cam.90min): 95%
- activity at 0.01 µM ([1]; 1.5 h, read-out: cm.mii.90min): 107%
- activity at 0.01 µM ([1]; 1.5 h, read-out: cm.mito.90min): 94.4%
- viability at 0.01 µM ([1]; 1.5 h, read-out: cm.tc.90min): 94.9%
- viability at 0.1 µM ([1]; 1.5 h, read-out: cm.cam.90min): 96%
- activity at 0.1 µM ([1]; 1.5 h, read-out: cm.mii.90min): 114%
- activity at 0.1 µM ([1]; 1.5 h, read-out: cm.mito.90min): 96%
- viability at 0.1 µM ([1]; 1.5 h, read-out: cm.tc.90min): 96.1%
- viability at 1 µM ([1]; 1.5 h, read-out: cm.cam.90min): 103%
- activity at 1 µM ([1]; 1.5 h, read-out: cm.mii.90min): 103%
- activity at 1 µM ([1]; 1.5 h, read-out: cm.mito.90min): 102%
- viability at 1 µM ([1]; 1.5 h, read-out: cm.tc.90min): 103%
- viability at 10 µM ([1]; 1.5 h, read-out: cm.cam.90min): 102%
- activity at 10 µM ([1]; 1.5 h, read-out: cm.mii.90min): 109%
- activity at 10 µM ([1]; 1.5 h, read-out: cm.mito.90min): 101%
- viability at 10 µM ([1]; 1.5 h, read-out: cm.tc.90min): 101%
- viability at 100 µM ([1]; 1.5 h, read-out: cm.cam.90min): 104%
- activity at 100 µM ([1]; 1.5 h, read-out: cm.mii.90min): 99.8%
- activity at 100 µM ([1]; 1.5 h, read-out: cm.mito.90min): 104%
- viability at 100 µM ([1]; 1.5 h, read-out: cm.tc.90min): 105%
- viability at 0.01 µM ([1]; 24 h, read-out: cm.cam.24hrs): 104%
- activity at 0.01 µM ([1]; 24 h, read-out: cm.mii.24hrs): 87%
- activity at 0.01 µM ([1]; 24 h, read-out: cm.mito.24hrs): 105%
- viability at 0.01 µM ([1]; 24 h, read-out: cm.tc.24hrs): 105%
- viability at 0.1 µM ([1]; 24 h, read-out: cm.cam.24hrs): 102%
- activity at 0.1 µM ([1]; 24 h, read-out: cm.mii.24hrs): 85.8%
- activity at 0.1 µM ([1]; 24 h, read-out: cm.mito.24hrs): 104%
- viability at 0.1 µM ([1]; 24 h, read-out: cm.tc.24hrs): 102%
- viability at 1 µM ([1]; 24 h, read-out: cm.cam.24hrs): 104%
- activity at 1 µM ([1]; 24 h, read-out: cm.mii.24hrs): 98%
- activity at 1 µM ([1]; 24 h, read-out: cm.mito.24hrs): 104%
- viability at 1 µM ([1]; 24 h, read-out: cm.tc.24hrs): 104%
- viability at 10 µM ([1]; 24 h, read-out: cm.cam.24hrs): 104%
- activity at 10 µM ([1]; 24 h, read-out: cm.mii.24hrs): 83.8%
- activity at 10 µM ([1]; 24 h, read-out: cm.mito.24hrs): 104%
- viability at 10 µM ([1]; 24 h, read-out: cm.tc.24hrs): 104%
- viability at 100 µM ([1]; 24 h, read-out: cm.cam.24hrs): 92.3%
- activity at 100 µM ([1]; 24 h, read-out: cm.mii.24hrs): 122%
- activity at 100 µM ([1]; 24 h, read-out: cm.mito.24hrs): 94.2%
- viability at 100 µM ([1]; 24 h, read-out: cm.tc.24hrs): 92.4%
- minimal effective concentration ([1]; 1.5 h, read-out: cm.cam.90min POD): 100 µM
- minimal effective concentration ([1]; 1.5 h, read-out: cm.mii.90min POD): 100 µM
- minimal effective concentration ([1]; 1.5 h, read-out: cm.mito.90min POD): 100 µM
- minimal effective concentration ([1]; 1.5 h, read-out: cm.tc.90min POD): 100 µM
- minimal effective concentration ([1]; 24 h, read-out: cm.cam.24hrs POD): 82.9 µM
- minimal effective concentration ([1]; 24 h, read-out: cm.mii.24hrs POD): 100 µM
- minimal effective concentration ([1]; 24 h, read-out: cm.mito.24hrs POD): 100 µM
- minimal effective concentration ([1]; 24 h, read-out: cm.tc.24hrs POD): 100 µM
- viability at 0.01 µM [2, 3]: 87.9%
- activity at 0.01 µM [2, 4]: 86.7%
- activity at 0.01 µM [2, 5]: 91.6%
- activity at 0.01 µM [2, 6]: 101%
- viability at 0.1 µM [2, 3]: 99.3%
- activity at 0.1 µM [2, 4]: 98.5%
- activity at 0.1 µM [2, 5]: 97.3%
- activity at 0.1 µM [2, 6]: 98.2%
- viability at 1 µM [2, 3]: 94.1%
- activity at 1 µM [2, 4]: 93.8%
- activity at 1 µM [2, 5]: 91%
- activity at 1 µM [2, 6]: 96.4%
- viability at 10 µM [2, 3]: 94.1%
- activity at 10 µM [2, 4]: 92.9%
- activity at 10 µM [2, 5]: 94%
- activity at 10 µM [2, 6]: 92.3%
- viability at 100 µM [2, 3]: 70.2%
- activity at 100 µM [2, 4]: 70.1%
- activity at 100 µM [2, 6]: 73.7%
- minimal effective concentration ([2]; 24 hr, read-out: huvec.cyto.24hr POD): 8.6 µM
- minimal effective concentration ([2]; 24 hr, read-out: huvec.mito.24hr POD): 5.97 µM
- minimal effective concentration ([2]; 24 hr, read-out: huvec.mitoint.24hr POD): 32 µM
- minimal effective concentration ([2]; 24 hr, read-out: huvec.nma.24hr POD): 1.41 µM
- viability at 0.01 µM [2, 7]: 87.9%
- viability at 0.1 µM [2, 7]: 99.3%
- viability at 1 µM [2, 7]: 94.1%
- viability at 10 µM [2, 7]: 94.1%
- viability at 100 µM [2, 7]: 70.2%
- minimal effective concentration ([2]; 24 hrs, read-out: huvec.tc.24hrs POD): 8.6 µM
